Data reported in US8828696B2, “Use of Penicillin G Procaine as a selective antimicrobial agent in the production of alcohol by fermentation” (Lallemand Specialites, Inc, priority 2008, dated 2014).

Legend:
Lactobacillus fermentum = assay: Bacterial inhibition test; assay type: cell-based; design: key: successful test corresponding to no growth is represented as (=); barely discernable growth is represented as (±); easily noticeable bacterial growth is represented as (+)
Description: (§1) To directly measure the efficacy of Penicillin G Procaine and Penicillin G Potassium a bacterial inhibition test was designed using industrial isolates and chosen ATCC strains. The inhibition testing was spread over 0.1 ppm to 5.0 ppm for the Lactobacillus fermentum and 1.0 ppm to 5.0 ppm for Lactobacillus brevis species of bacteria due to the lack of response of Lactobacillus brevis at lower concentrations. […] The strains used were two isolates of Lactobacillus fermentum and 2 isolates of Lactobacillus brevis. The Lactobacillus fermentum series contained both an industry derived isolate Ind 1 and an ATCC strain while the Lactobacillus brevis series comprised of two isolates, Ind 1 and Ind 43 derived from the ethanol plants. The inhibition test plates were set in triplicate and read at 12 hour intervals up to 48 hours of test endpoint. The results below represent the mode average of the outcome from the triplicate inhibitory test sets for each trial. Table 11 lists the Lactobacillus fermentum and the Lactobacillus brevis results of the inhibition testing as follows: successful test corresponding to no growth is represented as (=), barely discernable growth is represented as (±) and easily noticeable bacterial growth is represented as (+). The set of control tests depict (=) control as just broth and (+) control as just broth with bacteria but without any antibiotic.
(§2) The trial was set up as follows:
(§3) • 1. Weigh out 0.1 g of each sample to be tested into a 15 ml centrifuge tube. • 2. Dissolve sample into 10 ml sterile water. […] Add antibiotic to clean tube, add 2 ml water. • b. Vortex, if antibiotic goes into solution add water for final volume of 10 ml. • c. […] Vortex until all material is in solution. • 3. Vortex the solutions to make sure that they are well mixed. • 4. Filter the solutions through a 0.2 μm syringe filter into a second labeled sterile centrifuge tube. • 5. Add antibiotic solution to MRS Broth for a final volume of 10 ml at the test concentration for each antibiotic. • 6. Mix organism solutions and add 2 μl to each of 3 wells of a 24 well plate. If tubes are used add the 2 μl to each of three tubes for each antibiotic. • 7. Transfer 1 ml of the antibiotic-broth solution to each well containing bacteria. • 8. Recap remaining antibiotic solution and return the tube to the tube rack. This tube will become the negative control for each dilution created. • 9. Add four μl of each bacterial culture to another set of wells and add […] of broth without antibiotics. These wells will be the positive controls. • 10. Incubate plates and tubes at 33 C for 48 hours, examining all samples at 24 hours for growth. Any turbidity detected should be a result of bacterial growth.

Lactobacillus brevis = assay: Bacterial inhibition test; assay type: cell-based; design: key to bacterial growth in inhibition test: successful test corresponding to no growth is represented as (=); barely discernable growth is represented as (±); easily noticeable bacterial growth is represented as (+)
Description: as §1, §2, §3

With `CC1(C)S[C@@H]2[C@H](NC(=O)Cc3ccccc3)C(=O)N2[C@H]1C(=O)O.CCN(CC)CCOC(=O)c1ccc(N)cc1` [Penicillin G Procaine] the “bacterial growth in inhibition test” value (Lactobacillus fermentum; ATCC L. fermentum, 0.1 ppm, Inc Time 12) was “=”, the “bacterial growth in inhibition test” value (Lactobacillus fermentum; ATCC L. fermentum, 0.1 ppm, Inc Time 24) was “=” and the “bacterial growth in inhibition test” value (Lactobacillus fermentum; ATCC L. fermentum, 0.1 ppm, Inc Time 36) was “=”. For the same compound, the “bacterial growth in inhibition test” value (Lactobacillus fermentum; ATCC L. fermentum, 0.1 ppm, Inc Time 48) was “±”, the “bacterial growth in inhibition test” value (Lactobacillus fermentum; ATCC L. fermentum, 0.3 ppm, Inc Time 12) was “=” and the “bacterial growth in inhibition test” value (Lactobacillus fermentum; ATCC L. fermentum, 0.3 ppm, Inc Time 24) was “=”. For the same compound, the “bacterial growth in inhibition test” value (Lactobacillus fermentum; ATCC L. fermentum, 0.3 ppm, Inc Time 36) was “=”, the “bacterial growth in inhibition test” value (Lactobacillus fermentum; ATCC L. fermentum, 0.3 ppm, Inc Time 48) was “=” and the “bacterial growth in inhibition test” value (Lactobacillus fermentum; ATCC L. fermentum, 0.5 ppm, Inc Time 12) was “=”. The “bacterial growth in inhibition test” value (Lactobacillus fermentum; ATCC L. fermentum, 0.5 ppm, Inc Time 24) was “=”, the “bacterial growth in inhibition test” value (Lactobacillus fermentum; ATCC L. fermentum, 0.5 ppm, Inc Time 36) was “=” and the “bacterial growth in inhibition test” value (Lactobacillus fermentum; ATCC L. fermentum, 0.5 ppm, Inc Time 48) was “=”. For the same compound, the “bacterial growth in inhibition test” value (Lactobacillus fermentum; ATCC L. fermentum, 1 ppm, Inc Time 12) was “=”, the “bacterial growth in inhibition test” value (Lactobacillus fermentum; ATCC L. fermentum, 1 ppm, Inc Time 24) was “=” and the “bacterial growth in inhibition test” value (Lactobacillus fermentum; ATCC L. fermentum, 1 ppm, Inc Time 36) was “=”. For the same compound, the “bacterial growth in inhibition test” value (Lactobacillus fermentum; ATCC L. fermentum, 1 ppm, Inc Time 48) was “=”, the “bacterial growth in inhibition test” value (Lactobacillus fermentum; ATCC L. fermentum, 5 ppm, Inc Time 12) was “=” and the “bacterial growth in inhibition test” value (Lactobacillus fermentum; ATCC L. fermentum, 5 ppm, Inc Time 24) was “=”. The “bacterial growth in inhibition test” value (Lactobacillus fermentum; ATCC L. fermentum, 5 ppm, Inc Time 36) was “=”, the “bacterial growth in inhibition test” value (Lactobacillus fermentum; ATCC L. fermentum, 5 ppm, Inc Time 48) was “=” and the “bacterial growth in inhibition test” value (Lactobacillus fermentum; Ind 1 L. fermentum, 0.1 ppm, Inc Time 12) was “=”. The “bacterial growth in inhibition test” value (Lactobacillus fermentum; Ind 1 L. fermentum, 0.1 ppm, Inc Time 24) was “±”, the “bacterial growth in inhibition test” value (Lactobacillus fermentum; Ind 1 L. fermentum, 0.1 ppm, Inc Time 36) was “±” and the “bacterial growth in inhibition test” value (Lactobacillus fermentum; Ind 1 L. fermentum, 0.1 ppm, Inc Time 48) was “±”. The “bacterial growth in inhibition test” value (Lactobacillus fermentum; Ind 1 L. fermentum, 0.3 ppm, Inc Time 12) was “=”, the “bacterial growth in inhibition test” value (Lactobacillus fermentum; Ind 1 L. fermentum, 0.3 ppm, Inc Time 24) was “=” and the “bacterial growth in inhibition test” value (Lactobacillus fermentum; Ind 1 L. fermentum, 0.3 ppm, Inc Time 36) was “=”. For the same compound, the “bacterial growth in inhibition test” value (Lactobacillus fermentum; Ind 1 L. fermentum, 0.3 ppm, Inc Time 48) was “±”, the “bacterial growth in inhibition test” value (Lactobacillus fermentum; Ind 1 L. fermentum, 0.5 ppm, Inc Time 12) was “=” and the “bacterial growth in inhibition test” value (Lactobacillus fermentum; Ind 1 L. fermentum, 0.5 ppm, Inc Time 24) was “=”. The “bacterial growth in inhibition test” value (Lactobacillus fermentum; Ind 1 L. fermentum, 0.5 ppm, Inc Time 36) was “=”, the “bacterial growth in inhibition test” value (Lactobacillus fermentum; Ind 1 L. fermentum, 0.5 ppm, Inc Time 48) was “=” and the “bacterial growth in inhibition test” value (Lactobacillus fermentum; Ind 1 L. fermentum, 1.0 ppm, Inc Time 12) was “=”. The “bacterial growth in inhibition test” value (Lactobacillus fermentum; Ind 1 L. fermentum, 1.0 ppm, Inc Time 24) was “=”, the “bacterial growth in inhibition test” value (Lactobacillus fermentum; Ind 1 L. fermentum, 1.0 ppm, Inc Time 36) was “=” and the “bacterial growth in inhibition test” value (Lactobacillus fermentum; Ind 1 L. fermentum, 1.0 ppm, Inc Time 48) was “=”. The “bacterial growth in inhibition test” value (Lactobacillus fermentum; Ind 1 L. fermentum, 5.0 ppm, Inc Time 12) was “=”, the “bacterial growth in inhibition test” value (Lactobacillus fermentum; Ind 1 L. fermentum, 5.0 ppm, Inc Time 24) was “=” and the “bacterial growth in inhibition test” value (Lactobacillus fermentum; Ind 1 L. fermentum, 5.0 ppm, Inc Time 36) was “=”. The “bacterial growth in inhibition test” value (Lactobacillus fermentum; Ind 1 L. fermentum, 5.0 ppm, Inc Time 48) was “=”, the “bacterial growth in inhibition test” value (Lactobacillus brevis; Ind 1 L. brevis, 1 ppm, Inc Time 12) was “±” and the “bacterial growth in inhibition test” value (Lactobacillus brevis; Ind 1 L. brevis, 1 ppm, Inc Time 24) was “+”. The “bacterial growth in inhibition test” value (Lactobacillus brevis; Ind 1 L. brevis, 1 ppm, Inc Time 36) was “+”, the “bacterial growth in inhibition test” value (Lactobacillus brevis; Ind 1 L. brevis, 1 ppm, Inc Time 48) was “+” and the “bacterial growth in inhibition test” value (Lactobacillus brevis; Ind 1 L. brevis, 2 ppm, Inc Time 12) was “±”. For the same compound, the “bacterial growth in inhibition test” value (Lactobacillus brevis; Ind 1 L. brevis, 2 ppm, Inc Time 24) was “+”, the “bacterial growth in inhibition test” value (Lactobacillus brevis; Ind 1 L. brevis, 2 ppm, Inc Time 36) was “+” and the “bacterial growth in inhibition test” value (Lactobacillus brevis; Ind 1 L. brevis, 2 ppm, Inc Time 48) was “+”. For the same compound, the “bacterial growth in inhibition test” value (Lactobacillus brevis; Ind 1 L. brevis, 3 ppm, Inc Time 12) was “±”, the “bacterial growth in inhibition test” value (Lactobacillus brevis; Ind 1 L. brevis, 3 ppm, Inc Time 24) was “+” and the “bacterial growth in inhibition test” value (Lactobacillus brevis; Ind 1 L. brevis, 3 ppm, Inc Time 36) was “+”. For the same compound, the “bacterial growth in inhibition test” value (Lactobacillus brevis; Ind 1 L. brevis, 3 ppm, Inc Time 48) was “+”, the “bacterial growth in inhibition test” value (Lactobacillus brevis; Ind 1 L. brevis, 4 ppm, Inc Time 12) was “±” and the “bacterial growth in inhibition test” value (Lactobacillus brevis; Ind 1 L. brevis, 4 ppm, Inc Time 24) was “±”. The “bacterial growth in inhibition test” value (Lactobacillus brevis; Ind 1 L. brevis, 4 ppm, Inc Time 36) was “+”, the “bacterial growth in inhibition test” value (Lactobacillus brevis; Ind 1 L. brevis, 4 ppm, Inc Time 48) was “+” and the “bacterial growth in inhibition test” value (Lactobacillus brevis; Ind 1 L. brevis, 5 ppm, Inc Time 12) was “=”. The “bacterial growth in inhibition test” value (Lactobacillus brevis; Ind 1 L. brevis, 5 ppm, Inc Time 24) was “=”, the “bacterial growth in inhibition test” value (Lactobacillus brevis; Ind 1 L. brevis, 5 ppm, Inc Time 36) was “±” and the “bacterial growth in inhibition test” value (Lactobacillus brevis; Ind 1 L. brevis, 5 ppm, Inc Time 48) was “+”. For the same compound, the “bacterial growth in inhibition test” value (Lactobacillus brevis; Ind 43 L. brevis, 1 ppm, Inc Time 12) was “=”, the “bacterial growth in inhibition test” value (Lactobacillus brevis; Ind 43 L. brevis, 1 ppm, Inc Time 24) was “+” and the “bacterial growth in inhibition test” value (Lactobacillus brevis; Ind 43 L. brevis, 1 ppm, Inc Time 36) was “+”. The “bacterial growth in inhibition test” value (Lactobacillus brevis; Ind 43 L. brevis, 1 ppm, Inc Time 48) was “+”, the “bacterial growth in inhibition test” value (Lactobacillus brevis; Ind 43 L. brevis, 2 ppm, Inc Time 12) was “=” and the “bacterial growth in inhibition test” value (Lactobacillus brevis; Ind 43 L. brevis, 2 ppm, Inc Time 24) was “+”. The “bacterial growth in inhibition test” value (Lactobacillus brevis; Ind 43 L. brevis, 2 ppm, Inc Time 36) was “+”, the “bacterial growth in inhibition test” value (Lactobacillus brevis; Ind 43 L. brevis, 2 ppm, Inc Time 48) was “+” and the “bacterial growth in inhibition test” value (Lactobacillus brevis; Ind 43 L. brevis, 3 ppm, Inc Time 12) was “=”. The “bacterial growth in inhibition test” value (Lactobacillus brevis; Ind 43 L. brevis, 3 ppm, Inc Time 24) was “+”, the “bacterial growth in inhibition test” value (Lactobacillus brevis; Ind 43 L. brevis, 3 ppm, Inc Time 36) was “+” and the “bacterial growth in inhibition test” value (Lactobacillus brevis; Ind 43 L. brevis, 3 ppm, Inc Time 48) was “+”. For the same compound, the “bacterial growth in inhibition test” value (Lactobacillus brevis; Ind 43 L. brevis, 4 ppm, Inc Time 12) was “=”, the “bacterial growth in inhibition test” value (Lactobacillus brevis; Ind 43 L. brevis, 4 ppm, Inc Time 24) was “±” and the “bacterial growth in inhibition test” value (Lactobacillus brevis; Ind 43 L. brevis, 4 ppm, Inc Time 36) was “+”. For the same compound, the “bacterial growth in inhibition test” value (Lactobacillus brevis; Ind 43 L. brevis, 4 ppm, Inc Time 48) was “+”, the “bacterial growth in inhibition test” value (Lactobacillus brevis; Ind 43 L. brevis, 5 ppm, Inc Time 12) was “=” and the “bacterial growth in inhibition test” value (Lactobacillus brevis; Ind 43 L. brevis, 5 ppm, Inc Time 24) was “±”. The “bacterial growth in inhibition test” value (Lactobacillus brevis; Ind 43 L. brevis, 5 ppm, Inc Time 36) was “±”, the “bacterial growth in inhibition test” value (Lactobacillus brevis; Ind 43 L. brevis, 5 ppm, Inc Time 48) was “+” and the minimum inhibitory concentration (Lactobacillus brevis; industry isolated Lactobacillus brevis, ppm of the fermentation mixture) was 1.0 ppm.
